Source: patent US20250380697A1, “ISOXAZOLINE DERIVATIVE COMPOUND AND INSECTICIDAL COMPOSITION COMPRISING SAME” (KYUNG NONG CORPORATION, priority 2022, published 2025)

Assays:
Assay type in all cases: in vivo
Spodoptera litura = test: Pesticidal activity against Spodoptera litura, leaf-dipping method; details: 48 h, read-out: mortality rate, Spodoptera litura
Thrips tabaci Lindeman = test: Pesticidal activity against Thrips tabaci Lindeman, spray method; details: adults, counted 24 and 48 hours, time not given, read-out: mortality rate, Thrips tabaci Lindeman
Text: A water-soaked filter paper (9.0 cm in diameter) was placed in an insect breeding dish (Lab Guide®) with a diameter of 9.0 cm and a height of 4.0 cm, and then parafilm (width 4.0 cm×height 4.0 cm) was placed thereon. Before being treated with a pesticide composition, 10 adult Thrips tabaci Lindeman were inoculated per petri dish using a No. 4 brush. In this case, Thrips tabaci Lindeman adults used were those collected in a place near the Andong National University (Korea) and bred for multiple generations. Then, the pesticide composition where the compound of Synthesis Example 2 was diluted (the solvent=distilled water+acetone 50,000 mg/L+Triton X-100 100 mg/L) was loaded into a 100 mL small sprayer, and sprayed 10-12 times at a distance of 30 cm and a height of 50 cm, and one cotyledons of soybean, which is a host plant, were added one at a time. Then, the Thrips tabaci Lindeman adults were stored under the conditions of 16 hours of light and 8 hours of darkness, 25±1° C., and relative humidity of 50-60%, and the number of live Thrips tabaci Lindeman adults was counted 24, and 48 hours after the inoculation. Thereafter, the larvae mortality rate was calculated in the same manner as in Test Example 1 above.

Spodoptera frugiperda = test: Pesticidal activity against Spodoptera frugiperda, leaf-dipping method; details: counted 24, 48, 72 hours, time not given, read-out: mortality rate, Spodoptera frugiperda
Procedure: Cabbage (Daiya) leaves were cut into pieces with a diameter of 5.8 cm, dipped in the pesticide composition where the compound of Synthesis Example 2 was diluted (the solvent=distilled water+acetone 50,000 mg/L+Triton X-100 100 mg/L) for 30 seconds, and sufficiently shade-dried. Then, the shade-dried cabbage leaves were placed in a petri dish (8.8 cm in diameter) covered with filter paper and repeatedly inoculated 3-5 times with the second to the third instar larvae of Spodoptera frugiperda, 10 larvae per inoculation. In particular, the Spodoptera frugiperda larvae used were those which were provided by Chung Buk University (Korea) and bred indoors for multiple generations. Then, the Spodoptera frugiperda larvae were stored under the conditions of 16 hours of light and 8 hours of dark, 25±1° C. and 50-60% relative humidity, and the number of live Spodoptera frugiperda larvae was counted 24, 48, and 72 hours after the inoculation. Thereafter, the larvae mortality rate was calculated in the same manner as in Test Example 1 above.

Row | SMILES | mortality at 0.1 ppm (Spodoptera litura) | mortality at 1 ppm (Spodoptera litura) | mortality at 10 ppm (Spodoptera litura) | mortality at 1 ppm (Thrips tabaci Lindeman) | mortality at 3 ppm (Thrips tabaci Lindeman) | mortality at 10 ppm (Thrips tabaci Lindeman) | mortality at 0.1 ppm (Spodoptera frugiperda) | mortality at 1 ppm (Spodoptera frugiperda) | mortality at 10 ppm (Spodoptera frugiperda)
1 | Cc1cc(C2=NOC(c3cc(Cl)cc(C(F)(F)F)c3)(C(F)(F)F)C2)ccc1C(=O)NC(=O)C1CC1 (racemic) [Synthesis Example 2] | 100% | 100% | 100% | 70% | 90% | 100% | 100% | 100% | 100%
2 | CON=CNC(=O)c1ccc(C2=NOC(c3cc(Cl)cc(Cl)c3)(C(F)(F)F)C2)cc1C (stereo not drawn) [Comparative Example 1, fluxametamide] | 90% | 100% | 100% | 63% | 83% | 86% | 100% | 100% | 100%
